According to patent US20250197387A1, “BCL-XL DEGRADERS AND USES THEREOF” (Kymera Therapeutics, Inc., priority 2021, published 2025):

Experiments:
Format in all cases: cell-based
MOLT-4 cells = assay: CTG (CellTiter-Glo) cell viability assay, MOLT-4; conditions: Homo sapiens, MOLT-4, 72 h, 3 day incubation, read-out: CTG Cell Viability Assay - MOLT-4 3 day: Average external-IC50
Description: Compound-mediated viability effect on MOLT-4 and Caki-2 was quantitatively determined using the CellTiter-Glo® Luminescent Cell Viability Assay kit from Promega (Catalog number G7570) following manufacturer's recommended procedures. Briefly, MOLT-4 and Caki-2 cells were seeded into 384 well plates (Grenier Bio-One, Catalog number 781080) with a density of 10,000 cells per well. Compounds were then added to the assay plate with final top concentration of 10 μM and 1:3 dilution series with total of 9 doses. The final DMSO concentration is normalized to 0.2%. The assay plates were incubated at 37° C., for 3 days under 5% CO2. Then the assay plate was equilibrated at room temperature for 10 minutes. To determine cell viability, 30 uL CellTiter Glo reagent was added to each well and the assay plate was centrifuged at 1000 rpm for 30 second, incubated at room temperature for 10 min, and analyzed by detecting the luminescence using a multimode plate reader (EnVision 2105, PerkinElmer). The data was then analyzed by software Prism 7.0 from GraphPad and the dose response curves are fit using a three-parameter logistic equation to calculate IC50.
The letter codes for MOLT-4 IC50 include: A (<0.1 μM); B (0.1-1.0 μM); C (>1.0-3.0 μM); and D (>3.0 μM). The letter codes for Caki-2 IC50 include: A (<0.1 μM); B (0.1-1.0 μM); C (>1.0-10.0 μM); and D (>10.0 μM).

BCL-XL [1] = molecular target: T1, BCL-XL (Homo sapiens, UniProt Q07817); assay: BCL-XL degradation assay, western blot in MOLT-4 cells, 16 h; conditions: western blot, MOLT-4 cells, 16 h; for Dmax: read-out: Bcl-xL WB in MOLT-4 degradation 16 h: Average Dmax %; for DC50: read-out: Bcl-xL WB in MOLT-4 degradation 16 h: Mean external-Abs DC50
T1 construct: endogenous in cells; host or cells: MOLT-4
In short: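 MOLT-4 cells treated with compounds at 0.02-10 μM final for 16 hr at 37° C; lysates analysed by western blot with anti-BCL-xL, beta-actin and GAPDH loading controls, infrared imaging and densitometry; DC50 and Dmax % reported as letter codes.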

BCL-XL [2] = molecular target: T1, BCL-XL; assay: Bcl-xL ELISA degradation in MOLT-4 cells, 6 h; conditions: for DC50: read-out: Bcl-xL ELISA in MOLT-4 degradation 6 h: Mean external-Abs DC50
Description: The letter codes for BCL-XL DC50 include: A (<0.01 μM); B (0.01-0.1 μM); C (>[…]); D (>0.5-1.0 μM); and E (>1.0 μM). The letter codes for Dmax % include A (>75%); B (50 to 75%); C (<50%).

T1 sequence (Q07817 whole entry): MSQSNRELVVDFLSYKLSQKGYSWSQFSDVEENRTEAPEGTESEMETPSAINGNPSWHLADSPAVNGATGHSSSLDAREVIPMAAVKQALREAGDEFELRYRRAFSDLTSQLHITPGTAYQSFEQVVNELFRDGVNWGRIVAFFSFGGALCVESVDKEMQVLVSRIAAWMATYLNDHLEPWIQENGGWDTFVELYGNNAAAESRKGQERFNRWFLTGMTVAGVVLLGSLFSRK

| Compound | IC50 (MOLT-4 cells) | Dmax (BCL-XL [1]) | Dmax (BCL-XL [2]) | DC50 (BCL-XL [2]) | DC50 (BCL-XL [1]) |
| --- | --- | --- | --- | --- | --- |
| Cc1ncsc1-c1ccc(CNC(=O)[C@@H]2C[C@@H](O)CN2C(=O)[C@@H](NC(=O)C2(F)CC2)C(C)(C)C)c(OCCCC(=O)N(C)CC[C@H](CSc2ccccc2)Nc2ccc(S(=O)(=O)NC(=O)c3ccc(N4CCN(CC5=C(c6ccc(Cl)cc6)CCC(C)(C)C5)CC4)cc3)cc2S(=O)(=O)C(F)(F)F)c1 [I-146] | 100 to 1000 nM |  |  |  |  |
| Cc1ncsc1-c1ccc([C@H](CC(=O)N(C)CCCCCC(=O)N2CCN(CC[C@H](CSc3ccccc3)Nc3ccc(S(=O)(=O)NC(=O)c4ccc(N5CCN(CC6=C(c7ccc(Cl)cc7)CCC(C)(C)C6)CC5)cc4)cc3S(=O)(=O)C(F)(F)F)CC2)NC(=O)[C@@H]2C[C@@H](O)CN2C(=O)[C@@H](NC(=O)C2(F)CC2)C(C)(C)C)cc1 [I-147] | 1000 to 3000 nM |  |  |  |  |
| Cc1cc(N(CCCC(=O)N(C)CCCCOCC(=O)N[C@H](C(=O)N2C[C@H](O)C[C@H]2C(=O)N[C@@H](C)c2ccc(-c3scnc3C)cc2)C(C)(C)C)c2ccc(-c3cnn(CC4CCCCC4)c3C)c(C(=O)O)n2)nnc1Nc1nc2ccccc2s1 [I-157] | > 3000 nM |  |  |  |  |
| Cc1cc(N(C)c2ccc(-c3cnn(CC45CC6CC(CC(C6)C4)C5)c3C)c(C(=O)NS(=O)(=O)c3ccc(N4CCC(C(=O)N[C@H](C(=O)N5C[C@H](O)C[C@H]5C(=O)N[C@@H](C)c5ccc(-c6scnc6C)cc5)C(C)(C)C)CC4)cc3)n2)nnc1Nc1nc2ccccc2s1 [I-246] |  | > 75% | > 75% | 10 to 100 nM | < 10 nM |
| Cc1ncsc1-c1ccc(CNC(=O)[C@@H]2C[C@@H](O)CN2C(=O)[C@@H](NC(=O)C2(F)CC2)C(C)(C)C)c(OCC2CCN(CC[C@H](CSc3ccccc3)Nc3ccc(S(=O)(=O)NC(=O)c4ccc(N5CCN(CC6=C(c7ccc(Cl)cc7)CCC(C)(C)C6)CC5)cc4)cc3S(=O)(=O)C(F)(F)F)CC2)c1 [I-249] |  | > 75% | < 50% | > 1000 nM | < 10 nM |
| Cc1ncsc1-c1ccc([C@H](C)NC(=O)[C@@H]2C[C@@H](O)CN2C(=O)[C@@H](NC(=O)CCCCCCCCC(=O)N2CCN(CC[C@H](CSc3ccccc3)Nc3ccc(S(=O)(=O)NC(=O)c4ccc(N5CCN(CC6=C(c7ccc(Cl)cc7)CCC(C)(C)C6)CC5)cc4)cc3S(=O)(=O)C(F)(F)F)CC2)C(C)(C)C)cc1 [I-1, (2S,4R)-1-((S)-2-(10-(4-((R)-3-((4-(N-(4-(4-((4′-chloro-4,4-dimethyl-3,4,5,6-tetrahydro-[1,1′-biphenyl]-2-yl)methyl)piperazin-1-yl)benzoyl)sulfamoyl)-2-((trifluoromethyl)sulfonyl)phenyl)amino)-4-(phenylthio)butyl)piperazin-1-yl)-10-oxodecanamido)-3,3-dimethylbutanoyl)-4-hydroxy-N-((S)-1-(4-(4-methylthiazol-5-yl)phenyl)ethyl)pyrrolidine-2-carboxamide] |  | > 75% |  |  | 100 to 500 nM |
| Cc1ncsc1-c1ccc([C@H](C)NC(=O)[C@@H]2C[C@@H](O)CN2C(=O)[C@@H](NC(=O)CCCC(=O)N(C)CCCc2cccc(F)c2OCCCc2sc(N3CCc4cccc(C(=O)Nc5nc6ccccc6s5)c4C3)nc2C(=O)O)C(C)(C)C)cc1 [I-9] |  | > 75% |  |  | 100 to 500 nM |
| Cc1ncsc1-c1ccc([C@H](C)NC(=O)[C@@H]2C[C@@H](O)CN2C(=O)[C@@H](NC(=O)C2(F)CC2)C(C)(C)C)c(OCC(=O)N2CCN(CC[C@H](CSc3ccccc3)Nc3ccc(S(=O)(=O)NC(=O)c4ccc(N5CCN(CC6=C(c7ccc(Cl)cc7)CCC(C)(C)C6)CC5)cc4)cc3S(=O)(=O)C(F)(F)F)CC2)c1 [I-112] |  | 50 to 75% |  |  | 500 to 1000 nM |
| Cc1ncsc1-c1ccc([C@H](C)NC(=O)[C@@H]2C[C@@H](O)CN2C(=O)[C@@H](NC(=O)C[C@H]2CC[C@H](C(=O)N3CCN(CC[C@H](CSc4ccccc4)Nc4ccc(S(=O)(=O)NC(=O)c5ccc(N6CCN(CC7=C(c8ccc(Cl)cc8)CCC(C)(C)C7)CC6)cc5)cc4S(=O)(=O)C(F)(F)F)CC3)CC2)C(C)(C)C)cc1 [I-390] |  | > 75% |  |  | 10 to 100 nM |

More lines, now with the values ahead:

| IC50 (MOLT-4 cells) | Dmax (BCL-XL [1]) | Dmax (BCL-XL [2]) | DC50 (BCL-XL [2]) | DC50 (BCL-XL [1]) | Compound |
| --- | --- | --- | --- | --- | --- |
| > 3000 nM |  |  |  |  | Cc1ncsc1-c1ccc([C@H](C)NC(=O)[C@@H]2C[C@@H](O)CC2C(=O)[C@@H](NC(=O)CCCC(=O)N2CCN(C(=O)COC3(Cn4cc(-c5ccc(N6CCc7cccc(C(=O)Nc8nc9ccccc9s8)c7C6)nc5C(=O)O)cn4)CCCCC3)CC2)C(C)(C)C)cc1 (stereo partly shown) [I-149] |
| 1000 to 3000 nM |  |  |  |  | Cc1ncsc1-c1ccc([C@H](C)NC(=O)[C@@H]2C[C@@H](O)CN2C(=O)[C@@H](NC(=O)COCCN2CCC(NC(=O)c3nc(N4CCc5cccc(C(=O)Nc6nc7ccccc7s6)c5C4)ccc3-c3cnn(CC4CCCCC4)c3C)CC2)C(C)(C)C)cc1 [I-152] |
|  | < 50% | < 50% | 10 to 100 nM |  | Cc1ncsc1-c1ccc([C@H](C)NC(=O)[C@@H]2C[C@@H](O)CN2C(=O)[C@@H](NC(=O)N2CCC(CN3CCN(CC#Cc4ccc(OCCCc5sc(N6CCc7cccc(C(=O)Nc8nc9ccccc9s8)c7C6)nc5C(=O)O)c(F)c4)CC3)CC2)C(C)(C)C)cc1 [I-72] |
|  | > 75% | > 75% | 10 to 100 nM | < 10 nM | Cc1ncsc1-c1ccc([C@H](C)NC(=O)[C@@H]2C[C@@H](O)CN2C(=O)C(c2cc(OC3CN(c4ccc(S(=O)(=O)NC(=O)c5nc(N6CCc7cccc(C(=O)Nc8nc9ccccc9s8)c7C6)ccc5-c5cnn(CC6CCCCC6)c5C)cc4)C3)no2)C(C)C)cc1 (stereo partly shown) [I-230] |
|  | 50 to 75% | < 50% | > 1000 nM | 10 to 100 nM | Cc1ncsc1-c1ccc([C@H](C)NC(=O)[C@@H]2C[C@@H](O)CN2C(=O)[C@@H](NC(=O)N2CC3(CC(N4CCN(C(=O)c5nc(N6CCc7cccc(C(=O)Nc8nc9ccccc9s8)c7C6)ccc5-c5cnn(CC6CCCCC6)c5C)CC4)C3)C2)C(C)(C)C)cc1 [I-248] |
| > 3000 nM |  |  |  |  | Cc1cc(N(CCCC(=O)N(C)CCOCC(=O)N[C@H](C(=O)N2C[C@H](O)C[C@H]2C(=O)N[C@@H](C)c2ccc(-c3scnc3C)cc2)C(C)(C)C)c2ccc(-c3cnn(CC4CCCCC4)c3C)c(C(=O)O)n2)nnc1Nc1nc2ccccc2s1 [I-156] |
|  | > 75% | 50 to 75% | 10 to 100 nM | < 10 nM | Cc1ncsc1-c1ccc([C@H](C)NC(=O)[C@@H]2C[C@@H](O)CN2C(=O)[C@@H](c2cc(N3CC4(CN(c5ccc(S(=O)(=O)NC(=O)c6nc(N7CCc8cccc(C(=O)Nc9nc%10ccccc%10s9)c8C7)ccc6-c6cnn(CC7CCCCC7)c6C)cc5)C4)C3)no2)C(C)C)cc1 [I-226] |
|  | > 75% | > 75% | 10 to 100 nM | < 10 nM | Cc1ncsc1-c1ccc([C@H](C)NC(=O)[C@@H]2C[C@@H](O)CN2C(=O)[C@@H](NC(=O)C2CCN(c3ccc(S(=O)(=O)NC(=O)c4nc(N5CCc6cccc(C(=O)Nc7nc8cccnc8s7)c6C5)ccc4-c4cnn(CC5CCCCC5)c4C)cc3)CC2)C(C)(C)C)cc1 [I-241] |
|  | > 75% | > 75% | 10 to 100 nM | < 10 nM | C#Cc1ccc([C@H](CO)NC(=O)[C@@H]2C[C@@H](O)CN2C(=O)[C@@H](NC(=O)C2CCN(c3ccc(S(=O)(=O)NC(=O)c4nc(N5CCc6cccc(C(=O)Nc7nc8ccccc8s7)c6C5)ccc4-c4cnn(CC5CCCCC5)c4C)cc3)CC2)C(C)(C)C)cc1 [I-242] |
|  | > 75% | 50 to 75% | 100 to 500 nM | < 10 nM | Cc1ncsc1-c1ccc([C@H](C)NC(=O)[C@@H]2C[C@@H](O)CN2C(=O)C(c2cc(OC3CC4(C3)CN(C(=O)c3nc(N5CCc6cccc(C(=O)Nc7nc8ccccc8s7)c6C5)ccc3-c3cnn(CC5CCCCC5)c3C)C4)no2)C(C)C)cc1 (stereo partly shown) [I-237] |
|  | 50 to 75% | < 50% | > 1000 nM | 10 to 100 nM | Cc1ncsc1-c1ccc([C@H](C)NC(=O)[C@@H]2C[C@@H](O)CN2C(=O)C(c2cc(OC3CCN(CCNC(=O)c4nc(N5CCc6cccc(C(=O)Nc7nc8ccccc8s7)c6C5)ccc4-c4cnn(CC5CCCCC5)c4C)CC3)no2)C(C)C)cc1 (stereo partly shown) [I-234] |
|  | > 75% | 50 to 75% | 100 to 500 nM | < 10 nM | Cc1ncsc1-c1ccc([C@H](C)NC(=O)[C@@H]2C[C@@H](O)CN2C(=O)[C@@H](c2cc(N3CC(N4CCC(NC(=O)c5nc(N6CCc7cccc(C(=O)Nc8nc9ccccc9s8)c7C6)ccc5-c5cnn(CC6CCCCC6)c5C)CC4)C3)no2)C(C)C)cc1 [I-236] |
|  | > 75% | > 75% | 10 to 100 nM | < 10 nM | Cc1cc(N2CCC(C(=O)N[C@H](C(=O)N3C[C@H](O)C[C@H]3C(=O)N[C@@H](C)c3ccc(-c4scnc4C)cc3)C(C)(C)C)CC2)ccc1S(=O)(=O)NC(=O)c1nc(N2CCc3cccc(C(=O)Nc4nc5ccccc5s4)c3C2)ccc1-c1cnn(CC2CCCCC2)c1C [I-275] |
